# From patent US20240075027A1, “REPOSITIONING THE ANTI-LEPROSY DRUG CLOFAZIMINE AGAINST DRUG-RESISTANT MYELOMA AND PUTATIVE STEM-CELL SUBCLONES” (Auburn University, priority 2022, published 2024)
# Where two headings read alike, the source gives them in different places.
# Experiments:
# [1] = system: apoptotic, ER stress, autophagy and survival proteins in myeloma cells; assay: Western blotting (immunoblotting) pre- vs post-treatment; type: cell-based, human
# Description: Cells treated with CLF, PI, or IMiD as single-agent or as a combination for 24 h were harvested, washed, and lysed using radioimmunoprecipitation assay (RIPA) lysis buffer containing 50 mM Tris-HCl, pH 7.5, 150 mM NaCl, 1% NP40, 5 mM EDTA, 1 mM DTT, phosphatase and […] cocktail (Sigma), and incubated on ice for 15 min. Samples were then centrifuged at 14,000 rpm at 4° C. for 30 mins. The supernatant was then aspirated, total protein was isolated and quantified using Pierce BCA Protein Assay Kit (Thermo Scientific). Samples were solubilized in SDS-PAGE sample buffer, and equal amounts of protein were loaded per lane of 10% SDS polyacrylamide gels and transferred onto PVDF membranes (Millipore; Billerica, MA). Membranes were blocked in TBS with SuperBlock® blocking buffer (Thermo Fisher). Membranes were then incubated with primary antibodies and secondary antibodies in TBS with 0.2% Tween® 20 and 2.5% BSA. Immunoreactivity was detected by Chemiluminescent HRP Substrate (Bio-Rad), and the exposed image was captured using a ChemiDoc MP Imaging System (Bio-Rad). Densitometry analysis was performed (in triplicates) using Image J software.
# [2] = system: bone marrow-derived CD138+ primary myeloma cells (PMCs); assay: Ex vivo direct-to-drug screening assay (CellTiter-Glo); type: cell-based; details: Homo sapiens, single-agent
# Description: Bone marrow-derived CD138+ primary myeloma cells were obtained from patients (n=16) and used as ex vivo model systems. Written informed consent was received from participants prior to inclusion in the study. Participants have been identified by number, not by name. The primary samples were cultured as total bone marrow and put in culture to retain the patients' natural BM microenvironment. Cells of interest were CD138+-gated during analysis. The drugs were screened in a 7-point, 10-fold dilution, with the highest concentration at 10 μM, and incubated for 24 h. Anti-MM activity was assessed through cellular viability, evaluated with CellTiter-Glo®. The mid-point EC50, percentage of maximum inhibition was calculated using the TIBCO Spotfire® v.7.0.0 software, and the area under the curve (AUC) was calculated with the GraphPad Prism v.8 software (Bonolo de Campos et al., 2020, Blood Cancer J., 10:54).
# [3] = system: RPMI8226P, RPMI8226VR, U266P, and U266VR cells; assay: CFSE assay of quiescent CD138+ cells; type: cell-based, human; details: parental and clonally derived PI-resistant cells
# Description: For assessing apoptosis in quiescent CD138+ cells, myeloma cells were first stained with carboxyfluorescein succinimidyl ester (CFSE; Invitrogen) for 30 min, then washed and resuspended in RPMI1640 medium and were incubated at 37° C. overnight. The next day, cells were treated and maintained further for 4 days with supplementation of the drugs every 48 h.
# [4] = system: HMCLs and patient primary myeloma cells; assay: Mass cytometry (CyTOF) single-cell proteomics; type: cell-based, human
# Description: Mass cytometry (CyTOF) analysis is a single-cell proteomics methodology that combines flow cytometry and elemental mass spectrometry. Thirty-seven antibody targets directed against cell surface (neoplastic myeloma) and intracellular markers (immune tumor microenvironment) were utilized for immunophenotyping panels. The antibody markers and respective metal conjugates are described in Table 2. One to three million untreated or treated (for 24 h) HMCLs or primary human myeloma cells were used for CyTOF staining. Cells were stained with cisplatin (1:10,000 dilutions in RPMI1640 media without FBS) at 37° C. for 5 minutes, washed with media with 10% FBS, spun at 300×g, and incubated with media with 10% FBS for 15 min. This was followed by another wash, spin, and the pellet was resuspended in 1× Fix buffer for 10 minutes at room temperature. HMCL samples, along with lyophilized healthy human PBMC (Veri-Cells PBMC: control cells; BioLegend), were washed using Maxpar cell staining buffer (MCSB) (Fluidigm). A total of 16 μL of the surface antibody cocktail was added to each tube containing each cell suspension in 100 μL of MCSB and incubated for 30 minutes at room temperature. Cells were washed with MCSB to remove excess antibodies and stored overnight at −80° C. after methanol fixation. Cells were washed with MCSB and incubated with 20 μL of intracellular antibody cocktail for 30 minutes at room temperature, followed by wash and fixation with fresh 1.6% formaldehyde solution for 10 minutes at room temperature. Cells were washed with MCSB and resuspended in 1 ml of Cell-ID™ Intercalator solution (1:4000 dilution in permeabilization buffer, Maxper Fix, and Perm Buffer). All samples were barcoded using cell-ID™ 20-Plex Barcoding Kit (Fluidigm), which were then stained, washed with MSCB, and acquired as a single multiplexed sample using Maxpar Cell Acquisition solution contained calibration beads.
# Samples were loaded onto a Helios CyTOF system (Fluidigm) using an attached autosampler and were acquired at a rate of 200-400 events per second. Data were collected as .FCS files using the CyTOF Software (Version 6.7.1014, Fluidigm). After acquisition, intrafile signal drift was normalized to the acquired calibration bead signal using the CyTOF Software.
# For CyTOF data analysis, Cytobank software version 7.3.0 (Santa Clara, CA) was used for cleanup of cell debris, removal of doublets and dead cells, and analysis of cleaned fcs files. Clustering, dimensionality reduction (to 10,000 events per file), and the visualization of cell population cluster map were performed by t-SNE. Relative marker intensities and cluster abundances per sample were visualized by a heatmap.
# [5] = system: ALDH+ myeloma cells; assay: Aldefluor (ALDH) activity assay; type: cell-based, human; details: 24 h
# Description: Aldehyde dehydrogenase (ALDH) activity was assessed using the Aldefluor™ assay kit according to the manufacturer's instructions (Stem Cell Technologies). Briefly, 1×10^6 myeloma cells were treated with CLF-based regimens for 24 h, harvested, and resuspended in 1 ml Aldefluor™ assay buffer containing the ALDH substrate BODIPY-aminoacetaldehyde (BAAA). Negative control samples were treated with 5 μl of diethylaminobenzaldehyde (DEAB) as an inhibitor of ALDH1 enzymatic activity. Cells were incubated for 30-45 min at 37° C., then washed twice, and suspended in Aldefluor™ assay buffer. The brightly fluorescent ALDH+ cells were detected by BD LSR II flowcytometry.
# [6] = system: Side population (SP) cells in PI-resistant HMCLs; assay: Side population analysis (DyeCycle Violet); type: cell-based, human
# Description: Side population cells were investigated using DyeCycle™ Violet (cell-permeable DNA binding) assays according to manufacturer's instructions (Thermofisher). […] After 96 h, cells were stained with 10 μM Vybrant™ DyeCycle™ Violet (DCV; Molecular Probes, Eugene, OR) for 90 min at 37° C. Samples incubated with 100 μM verapamil (Sigma-Aldrich) for 30 min were used as positive control. Following dye incubation, cells were washed twice with ice-cold PBS, chilled on ice, and immediately analyzed by flow cytometry.
# [7] = system: HMCLs (RPMI826 P/VR and U266 P/VR); assay: Colony-forming cells (CFCs) assay (Methocult); type: cell-based, human
# Description: Colony formation potential of untreated and drug-treated HMCLs was accessed using Methylcellulose-based assay according to manufacturer's instructions (Methocult, Stem Cell Technologies). Briefly, myeloma cells were treated with either CLF alone or in combination with PI for the indicated time period. Following incubation, cells were harvested, washed with PBS, and methylcellulose-based media (Methocult) was added to cells pellets, and colonies were allowed to grow for 4 weeks in 6-well plates. Images were captured after 4 weeks with an inverted microscope (Olympus, 4×/20× lens with color camera), and cell colony numbers were counted by Image J software (NIH).
# [8] = system: RPMI8226P/VR cells; assay: Mitochondrial membrane potential (JC-1); type: cell-based, human; details: 24 h
# Description: CLF-treated (24 h) cells were incubated with 5 μM JC-1 dye for 15 min in the dark at 37° C. and washed twice in PBS, and then analyzed for red and green fluorescence by flow cytometry.
# [9] = system: human myeloma cell lines (HMCLs); assay: Drug synergy analysis (Calcusyn, Chou-Talalay combination index); type: cell-based; details: CLF in combination with PI or IMiD
# Description: (§1) HMCLs were treated with increasing concentrations of CLF, PIs (represented by Ix), and IMiDs (represented by Len) as single agents or in combination for 48 h, and cytotoxicity assays were performed using CellTiter-Glo® Luminescent cell viability assay (Promega Madison, WI). Luminescence was recorded in a Neo2 Microplate Reader (Biotek), and half-maximal inhibitory concentration (IC50) values were determined by calculating the nonlinear regression using the sigmoidal dose-response equation (variable slope). The drug cytotoxicity data and IC50 values were used to compare response and to determine synergy by Calcusyn software (Biosoft; Chou-Talalay's CI theorem) (Chou, 2011, Am J Cancer Res, 1: 925-54). CI value <0.9 denotes synergism.
# [10] = cited from earlier work
# [11] = system: RPMI8226P/VR cells; assay: Superoxide levels (DHE flow cytometry); type: cell-based, human; details: 24 h
# Description: Myeloma cells treated with CLF-based regimens for 24 h were incubated with 2.5 μM DHE (in RPMI) for 15 min in the dark at 37° C. Cells were then washed once with PBS, and red fluorescence was detected by flow cytometry.
# [12] = system: caspase-3/7 activity in HMCLs; assay: Caspase-Glo 3/7 luminescent assay; type: cell-based, human
# Description: Caspase-3/7 activity assays were performed on the HMCLs using Caspase-Glo 3/7 luminescent assay kit according to manufacturer's instructions (Promega Madison, WI). Briefly, 1×10^6 cells/ ml were cultured in 6-well plates and treated with either CLF alone and/or combination for indicated times. After harvesting, cells were washed twice with cold PBS and resuspended with Caspase-Glo 3/7 reagents. Reactions were incubated for 1 h at 37° C., and luminescence was determined using Synergy 2 Microplate Reader (Biotek). Cell death by apoptosis was also measured by immunoblotting analysis.
# [13] = system: human myeloma cell lines (HMCLs); assay: In vitro chemosensitivity assay (CellTiter-Glo cell viability); type: cell-based; details: single-agent
# From the text: A large panel of HMCLs representing innate sensitivity and resistance to PIs and IMiDs (similar to refractory disease) have been compiled, as well as >10 pairs of parental and clonally-derived PI/IMiD-resistant HMCLs (P vs R pairs; generated using dose escalation over a period of time) representing acquired or emerging drug resistance, and encompassing the broad spectrum of biological and genetic heterogeneity of myeloma (Mitra et al., 2017, Blood Cancer J., 7:e581). The human myeloma cell lines (HMCLs) were obtained as previously described (Mitra et al., 2017, Blood Cancer J., 7:e581). The clonally related acquired PI-resistant HMCLs were generated from parental cell lines by dose escalation of bortezomib using pulses of once-weekly bortezomib treatment as described previously (Mitra et al., 2016, Leukemia., 30:1094-1102). […]
# as §1, with “The drug cytotoxicity data and IC50 values were used to compare response and to determine synergy by Calcusyn software (Biosoft; Chou-Talalay's CI theorem) (Chou, 2011, Am J Cancer Res, 1: 925-54). CI value <0.9 denotes synergism.” left out
# [14] = system: HMCLs; assay: Apoptosis assay (Annexin V-FITC flow cytometry); type: cell-based, human
# Description: Cells were cultured for 48 h in the presence of indicated concentrations of compounds, harvested and washed, and incubated with Annexin V-FITC (BD Biosciences) and Propidium Iodide for 15 min at room temperature in the dark. Apoptosis was measured by BD LSR II flow cytometry (BD Biosciences).
# [15] = HMCLs and patient-derived primary cells, irrespective of PI- or IMiD-resistance
smiles,measurement,setting,value
"CC(C)/N=c1\cc2n(-c3ccc(Cl)cc3)c3ccccc3nc-2cc1Nc1ccc(Cl)cc1 [CLF, clofazimine]",ER stress pathway and autophagy proteins,"[1]; IRE1, PERK, ATF6, mRNA sequencing, IPA and Western blotting",induces the proteins involved ER stress pathway
same,anti-apoptotic/survival markers and Bax expression,[1]; Western blotting,"decrease in the anti-apoptotic/survival markers Bcl2, Mcl-1 and increase in Bax expression"
same,caspase activation (Western blotting),"[1]; caspase-3, 8, 9",activated caspase-3 and 9 but not 8
same,STAT and HIF-1α expression,"[1]; myeloma, FIG. 3D densitometry",downregulation of STATS and HIF-1α
same,EC50,"[2]; ex vivo, patients n=12, read-out: maximum EC50",15.2 µM
same,EC50,"[2]; ex vivo, patients n=12, read-out: median EC50",2.41 µM
same,EC50,"[2]; ex vivo, patients n=12, read-out: minimum EC50",1.05 µM
same,EC50,"[2]; patients n=12, range, read-out: ex vivo CLF EC50 values",1 to 15 µM
same,apoptosis in CFSEbright and CFSEdim cells,[3],caused apoptosis in both CFSEbright and CFSEdim cells
same,number of CFSE-bright (non-dividing) cells,[3],significantly reduced their number
same,cleaved caspase-3 levels (CyTOF),[4]; [15],elevated cleaved caspase-3 levels
same,marker expression (CyTOF),[4]; [15],"downregulation of pS6, IRF4, pCREB, pRB, IKZF1"
same,cleaved caspase levels (CyTOF),"[4]; all cell lines and primary samples, cluster enriched for cells exposed to high dose CLF",elevated cleaved caspase levels
same,"myeloma survival markers incl. IRF4, IKZF1, IKZF3, CD229, CD27, pS6, pERK, IkBa (CyTOF and immunoblotting)",[4]; pre- vs post-treatment,shifts in a majority of these markers
same,ALDH activity,[5],significant decrease in ALDH activity
same,side population (SP),[6],reduced SP
same,colony formation,[7]; PI-resistant lines (RPMI826 P/VR and U266 P/VR),significantly reduced colony formation
same,colony number and colony size,[7]; compared to control or ixazomib,significantly reduced colony number as well as colony size
same,mitochondrial membrane potential (JC-1),[8],mitochondrial membrane depolarization
same,"therapeutic index / amount of PI/IMiD required (dose reduction index, predicted decrease in IC50)",[9],decreased the amount of PI/IMiD required to achieve effective responses
same,safe dose range,[10]; corresponds to human plasma Cmax,0.84 to 8.4 µM
same,human plasma Cmax,[10]; human plasma,0.4 to 4 µg/mL
same,cellular superoxide anions (DHE),[11],induction of cellular superoxide anions
same,caspase-3 activity (Caspase 3/7 assay),[12],induced caspase-3 activity
same,IC50,"[13]; Homo sapiens, 48 h, panel of sensitive, innate and clonally-derived resistant HMCLs",0.2 to 20.5 µM
same,"anti-myeloma potency compared with other PPARg agonists (rosiglitazone, pioglitazone)",[13],most potent among all the PPARg agonists tested
same,apoptosis (annexin V staining),[14]; CLF alone,significant apoptosis
same,apoptosis (annexin V staining),[14]; in combination with 15 nm ixazomib,significant apoptosis
